{"source": "ChEMBL document CHEMBL3885861", "about": "“Open TG-GATES”", "organism": "Rattus norvegicus", "assay": "Open TG-GATES - Regimen: Daily Repeat", "assay_type": "toxicity, organism-based, Sprague-Dawley", "set-up": "regimen Daily Repeat, gender Male, age 6 weeks", "conditions": "in vivo, po, 45 mg/kg, route gavage, dose level Low", "key": {"[1]": {"conditions": "72 h, tissue Kidney, time 3 day"}, "[2]": {"conditions": "72 h, tissue Plasma, time 3 day"}}}
{"smiles": "CC(=O)Oc1ccccc1C(=O)O", "note": "[ASPIRIN]", "values": [{"measurement": "TERMINAL_BW", "setting": "72 h, time 3 day", "value": 237.2, "unit": "g"}, {"measurement": "APTT", "setting": "72 h, tissue Blood, time 3 day", "value": 19.4, "unit": "s"}, {"measurement": "Bas", "setting": "72 h, tissue Blood, time 3 day", "value": 0, "unit": "%"}, {"measurement": "Eos", "setting": "72 h, tissue Blood, time 3 day", "value": 0.8, "unit": "%"}, {"measurement": "Fbg", "setting": "72 h, tissue Blood, time 3 day", "value": 214, "unit": "mg/dL"}, {"measurement": "Hb", "setting": "72 h, tissue Blood, time 3 day", "value": 13.7, "unit": "g/dL"}, {"measurement": "Ht", "setting": "72 h, tissue Blood, time 3 day", "value": 40.3, "unit": "%"}, {"measurement": "Lym", "setting": "72 h, tissue Blood, time 3 day", "value": 81, "unit": "%"}, {"measurement": "MCH", "setting": "72 h, tissue Blood, time 3 day", "value": 21.4, "unit": "pg"}, {"measurement": "MCHC", "setting": "72 h, tissue Blood, time 3 day", "value": 33.9, "unit": "%"}, {"measurement": "MCV", "setting": "72 h, tissue Blood, time 3 day", "value": 62.9, "unit": "fL"}, {"measurement": "Mono", "setting": "72 h, tissue Blood, time 3 day", "value": 2.8, "unit": "%"}, {"measurement": "Neu", "setting": "72 h, tissue Blood, time 3 day", "value": 13.6, "unit": "%"}, {"measurement": "Plat", "setting": "72 h, tissue Blood, time 3 day", "value": 113.2, "unit": "x10_4/uL"}, {"measurement": "RBC", "setting": "72 h, tissue Blood, time 3 day", "value": 641.2, "unit": "x10_4/ul"}, {"measurement": "Ret", "setting": "72 h, tissue Blood, time 3 day", "value": 5.8, "unit": "%"}, {"measurement": "WBC", "setting": "72 h, tissue Blood, time 3 day", "value": 103.1, "unit": "x10_2/uL"}, {"measurement": "KIDNEY_L", "setting": "[1]", "value": 1.1, "unit": "g"}, {"measurement": "KIDNEY_R", "setting": "[1]", "value": 1.1, "unit": "g"}, {"measurement": "KIDNEY_TOTAL", "setting": "[1]", "value": 2.2, "unit": "g"}, {"measurement": "ALP", "setting": "[2]", "value": 890.4, "unit": "IU/L"}, {"measurement": "ALT", "setting": "[2]", "value": 45, "unit": "IU/L"}, {"measurement": "AST", "setting": "[2]", "value": 86.4, "unit": "IU/L"}, {"measurement": "BUN", "setting": "[2]", "value": 13.8, "unit": "mg/dL"}, {"measurement": "CRE", "setting": "[2]", "value": 0.4, "unit": "mg/dL"}, {"measurement": "Ca", "setting": "[2]", "value": 10.7, "unit": "mg/dL"}, {"measurement": "Cl", "setting": "[2]", "value": 102.2, "unit": "meq/L"}, {"measurement": "DBIL", "setting": "[2]", "value": 0.09, "unit": "mg/dL"}, {"measurement": "GLC", "setting": "[2]", "value": 205.2, "unit": "mg/dL"}, {"measurement": "IP", "setting": "[2]", "value": 6.8, "unit": "mg/dL"}, {"measurement": "K", "setting": "[2]", "value": 3.8, "unit": "meq/L"}, {"measurement": "LDH", "setting": "[2]", "value": 315.2, "unit": "IU/L"}, {"measurement": "Na", "setting": "[2]", "value": 140.4, "unit": "meq/L"}, {"measurement": "PL", "setting": "[2]", "value": 146.2, "unit": "mg/dL"}, {"measurement": "RALB", "setting": "[2]", "value": 3.5, "unit": "g/dL"}, {"measurement": "TBIL", "setting": "[2]", "value": 0.1, "unit": "mg/dL"}, {"measurement": "TC", "setting": "[2]", "value": 71, "unit": "mg/dL"}, {"measurement": "TP", "setting": "[2]", "value": 5.7, "unit": "g/dL"}, {"measurement": "gamma-GTP", "setting": "[2]", "value": 0.6, "unit": "IU/L"}, {"measurement": "TERMINAL_BW", "setting": "[…], time 7 day", "value": 270.5, "unit": "g"}, {"measurement": "TERMINAL_BW", "setting": "[…], time 14 day", "value": 315.9, "unit": "g"}, {"measurement": "TERMINAL_BW", "setting": "[…], time 28 day", "value": 394.7, "unit": "g"}, {"measurement": "APTT", "setting": "[…], tissue Blood, time 7 day", "value": 22.5, "unit": "s"}, {"measurement": "Bas", "setting": "[…], tissue Blood, time 7 day", "value": 0, "unit": "%"}, {"measurement": "Eos", "setting": "[…], tissue Blood, time 7 day", "value": 1, "unit": "%"}, {"measurement": "Fbg", "setting": "[…], tissue Blood, time 7 day", "value": 205.8, "unit": "mg/dL"}, {"measurement": "Hb", "setting": "[…], tissue Blood, time 7 day", "value": 13.5, "unit": "g/dL"}, {"measurement": "Ht", "setting": "[…], tissue Blood, time 7 day", "value": 39.9, "unit": "%"}, {"measurement": "Lym", "setting": "[…], tissue Blood, time 7 day", "value": 84.2, "unit": "%"}, {"measurement": "MCH", "setting": "[…], tissue Blood, time 7 day", "value": 20.8, "unit": "pg"}, {"measurement": "MCHC", "setting": "[…], tissue Blood, time 7 day", "value": 33.9, "unit": "%"}, {"measurement": "MCV", "setting": "[…], tissue Blood, time 7 day", "value": 61.4, "unit": "fL"}, {"measurement": "Mono", "setting": "[…], tissue Blood, time 7 day", "value": 2.2, "unit": "%"}, {"measurement": "Neu", "setting": "[…], tissue Blood, time 7 day", "value": 12.2, "unit": "%"}, {"measurement": "PT", "setting": "[…], tissue Blood, time 7 day", "value": 12.6, "unit": "s"}, {"measurement": "Plat", "setting": "[…], tissue Blood, time 7 day", "value": 120.9, "unit": "x10_4/uL"}, {"measurement": "RBC", "setting": "[…], tissue Blood, time 7 day", "value": 650.4, "unit": "x10_4/ul"}, {"measurement": "Ret", "setting": "[…], tissue Blood, time 7 day", "value": 5.3, "unit": "%"}, {"measurement": "WBC", "setting": "[…], tissue Blood, time 7 day", "value": 120.2, "unit": "x10_2/uL"}, {"measurement": "APTT", "setting": "[…], tissue Blood, time 14 day", "value": 19.9, "unit": "s"}, {"measurement": "Bas", "setting": "[…], tissue Blood, time 14 day", "value": 0, "unit": "%"}, {"measurement": "Eos", "setting": "[…], tissue Blood, time 14 day", "value": 1.2, "unit": "%"}, {"measurement": "Fbg", "setting": "[…], tissue Blood, time 14 day", "value": 220.6, "unit": "mg/dL"}, {"measurement": "Hb", "setting": "[…], tissue Blood, time 14 day", "value": 14.7, "unit": "g/dL"}, {"measurement": "Ht", "setting": "[…], tissue Blood, time 14 day", "value": 42.3, "unit": "%"}, {"measurement": "Lym", "setting": "[…], tissue Blood, time 14 day", "value": 77.2, "unit": "%"}, {"measurement": "MCH", "setting": "[…], tissue Blood, time 14 day", "value": 20.9, "unit": "pg"}, {"measurement": "MCHC", "setting": "[…], tissue Blood, time 14 day", "value": 34.9, "unit": "%"}, {"measurement": "MCV", "setting": "[…], tissue Blood, time 14 day", "value": 59.8, "unit": "fL"}, {"measurement": "Mono", "setting": "[…], tissue Blood, time 14 day", "value": 2, "unit": "%"}, {"measurement": "Neu", "setting": "[…], tissue Blood, time 14 day", "value": 18.2, "unit": "%"}, {"measurement": "Plat", "setting": "[…], tissue Blood, time 14 day", "value": 128.5, "unit": "x10_4/uL"}, {"measurement": "RBC", "setting": "[…], tissue Blood, time 14 day", "value": 707.4, "unit": "x10_4/ul"}, {"measurement": "Ret", "setting": "[…], tissue Blood, time 14 day", "value": 3.6, "unit": "%"}, {"measurement": "WBC", "setting": "[…], tissue Blood, time 14 day", "value": 138.1, "unit": "x10_2/uL"}, {"measurement": "APTT", "setting": "[…], tissue Blood, time 28 day", "value": 20.3, "unit": "s"}, {"measurement": "Bas", "setting": "[…], tissue Blood, time 28 day", "value": 0, "unit": "%"}, {"measurement": "Eos", "setting": "[…], tissue Blood, time 28 day", "value": 1.4, "unit": "%"}, {"measurement": "Fbg", "setting": "[…], tissue Blood, time 28 day", "value": 207.2, "unit": "mg/dL"}, {"measurement": "Hb", "setting": "[…], tissue Blood, time 28 day", "value": 15.4, "unit": "g/dL"}]}
